Test results as given in ChEMBL document CHEMBL4376815, “The Development Process for Discovery and Clinical Advancement of Modern Antimalarials” (J Med Chem, 2019).

Columns and labels:
Plasmodium cynomolgi [1] = assay: Antimalarial activity against schizont stage Plasmodium cynomolgi infected in primary rhesus monkey hepatocytes; assay type: functional, organism-based
Plasmodium cynomolgi [2] = assay: Antimalarial activity against hypnozoites stage Plasmodium cynomolgi infected in primary rhesus monkey hepatocytes; assay type: functional, organism-based
[3] = Inhibition of Plasmodium vivax PI4K
Plasmodium cynomolgi [4] = assay: Antimalarial activity against hypnozoites stage Plasmodium cynomolgi infected in primary rhesus monkey hepatocytes measured on day 5; assay type: functional, organism-based; conditions: 120 h
Plasmodium falciparum [5] = assay: Antimalarial activity against early stage Plasmodium falciparum gametocytes by luciferase reporter gene assay; assay type: functional, organism-based
Plasmodium falciparum [6] = assay: Antimalarial activity against late stage Plasmodium falciparum gametocytes by luciferase reporter gene assay; assay type: functional, organism-based
Plasmodium falciparum [7] = assay: Antimalarial activity against late stage Plasmodium falciparum gametocytes assessed as reduction in gametogenesis exflagellation after 24 hrs; assay type: functional, organism-based
Plasmodium falciparum [8] = assay: Antimalarial activity against stage 5 Plasmodium falciparum assessed as reduction in oocyst formation in mosquito midgut pretreated 24 hrs before feeding by standard membrane-feeding assay; assay type: functional, organism-based
Plasmodium falciparum [9] = assay: Antimalarial activity against stage 5 Plasmodium falciparum assessed as reduction in oocyst formation in mosquito midgut at 1 uM after 24 hrs by standard membrane-feeding assay relative to control; assay type: functional; parameters: scale not given: the % may be the effect or the level left
Plasmodium berghei = assay: Antimalarial activity against Plasmodium berghei infected in mouse assessed reduction in parasitemia; assay type: functional; parameters: scale not given: the % may be the effect or the level left
Plasmodium falciparum [10] = assay: Antimalarial activity Plasmodium falciparum infected in po dosed SCID mouse assessed as reduction in parasite growth administered daily for 4 consecutive days and measured on day 7 by flow cytometric analysis; assay type: functional; conditions: 168 h
[11] = Plasma clearance in dog; assay type: ADME, Canis lupus familiaris
[12] = Plasma clearance in mouse; assay type: ADME, organism-based
[13] = Plasma clearance in rat; assay type: ADME
[14] = Volume of distribution in dog; assay type: ADME, Canis lupus familiaris; conditions: in vivo
[15] = Volume of distribution in mouse; assay type: ADME, organism-based; conditions: in vivo
[16] = Volume of distribution in rat; assay type: ADME; conditions: in vivo
[17] = Half life in dog; assay type: ADME, Canis lupus familiaris; conditions: in vivo
[18] = Half life in monkey; assay type: ADME, Macaca mulatta; conditions: rhesus monkey, in vivo
[19] = Half life in mouse; assay type: ADME, organism-based; conditions: in vivo
[20] = Half life in rat; assay type: ADME; conditions: in vivo
[21] = Oral bioavailability in dog; assay type: ADME, organism-based, Canis lupus familiaris; conditions: in vivo
[22] = Oral bioavailability in monkey; assay type: ADME, organism-based, Macaca mulatta; conditions: rhesus monkey, in vivo
[23] = Plasma clearance in human at 80 to 100 mg; assay type: ADME
[24] = Volume of distribution in human at 80 to 100 mg; assay type: ADME
[25] = Half life in human at 80 to 100 mg; assay type: ADME
[26] = biological target: Sodium channel protein type 5 subunit alpha (Homo sapiens, UniProt Q14524); assay: Inhibition of Nav1.5 (unknown origin)
[27] = biological target: Voltage-dependent L-type calcium channel subunit alpha-1C (Homo sapiens, UniProt Q13936); assay: Inhibition of Cav1.2 (unknown origin)
[28] = AUC (0 to infinity) in human at 5 to 120 mg,po; assay type: ADME; conditions: in vivo
[29] = Half life in human at 5 to 120 mg,po; assay type: ADME; conditions: in vivo
[30] = AUC in human at 5 to 120 mg,po in fed condition; assay type: ADME; conditions: in vivo
[31] = AUC in human at 5 to 120 mg,po in fast condition; assay type: ADME; conditions: in vivo
[32] = Half life in human at 5 to 120 mg,po in fed condition; assay type: ADME; conditions: in vivo
[33] = Half life in human at 5 to 120 mg,po in fast condition; assay type: ADME; conditions: in vivo
Plasmodium falciparum [34] = assay: Ex-vivo antimalarial activity against Plasmodium falciparum serum derived from 40 mg, po treated human after 144 hrs; assay type: functional, organism-based

Chain of Sodium channel protein type 5 subunit alpha (Q14524 whole entry): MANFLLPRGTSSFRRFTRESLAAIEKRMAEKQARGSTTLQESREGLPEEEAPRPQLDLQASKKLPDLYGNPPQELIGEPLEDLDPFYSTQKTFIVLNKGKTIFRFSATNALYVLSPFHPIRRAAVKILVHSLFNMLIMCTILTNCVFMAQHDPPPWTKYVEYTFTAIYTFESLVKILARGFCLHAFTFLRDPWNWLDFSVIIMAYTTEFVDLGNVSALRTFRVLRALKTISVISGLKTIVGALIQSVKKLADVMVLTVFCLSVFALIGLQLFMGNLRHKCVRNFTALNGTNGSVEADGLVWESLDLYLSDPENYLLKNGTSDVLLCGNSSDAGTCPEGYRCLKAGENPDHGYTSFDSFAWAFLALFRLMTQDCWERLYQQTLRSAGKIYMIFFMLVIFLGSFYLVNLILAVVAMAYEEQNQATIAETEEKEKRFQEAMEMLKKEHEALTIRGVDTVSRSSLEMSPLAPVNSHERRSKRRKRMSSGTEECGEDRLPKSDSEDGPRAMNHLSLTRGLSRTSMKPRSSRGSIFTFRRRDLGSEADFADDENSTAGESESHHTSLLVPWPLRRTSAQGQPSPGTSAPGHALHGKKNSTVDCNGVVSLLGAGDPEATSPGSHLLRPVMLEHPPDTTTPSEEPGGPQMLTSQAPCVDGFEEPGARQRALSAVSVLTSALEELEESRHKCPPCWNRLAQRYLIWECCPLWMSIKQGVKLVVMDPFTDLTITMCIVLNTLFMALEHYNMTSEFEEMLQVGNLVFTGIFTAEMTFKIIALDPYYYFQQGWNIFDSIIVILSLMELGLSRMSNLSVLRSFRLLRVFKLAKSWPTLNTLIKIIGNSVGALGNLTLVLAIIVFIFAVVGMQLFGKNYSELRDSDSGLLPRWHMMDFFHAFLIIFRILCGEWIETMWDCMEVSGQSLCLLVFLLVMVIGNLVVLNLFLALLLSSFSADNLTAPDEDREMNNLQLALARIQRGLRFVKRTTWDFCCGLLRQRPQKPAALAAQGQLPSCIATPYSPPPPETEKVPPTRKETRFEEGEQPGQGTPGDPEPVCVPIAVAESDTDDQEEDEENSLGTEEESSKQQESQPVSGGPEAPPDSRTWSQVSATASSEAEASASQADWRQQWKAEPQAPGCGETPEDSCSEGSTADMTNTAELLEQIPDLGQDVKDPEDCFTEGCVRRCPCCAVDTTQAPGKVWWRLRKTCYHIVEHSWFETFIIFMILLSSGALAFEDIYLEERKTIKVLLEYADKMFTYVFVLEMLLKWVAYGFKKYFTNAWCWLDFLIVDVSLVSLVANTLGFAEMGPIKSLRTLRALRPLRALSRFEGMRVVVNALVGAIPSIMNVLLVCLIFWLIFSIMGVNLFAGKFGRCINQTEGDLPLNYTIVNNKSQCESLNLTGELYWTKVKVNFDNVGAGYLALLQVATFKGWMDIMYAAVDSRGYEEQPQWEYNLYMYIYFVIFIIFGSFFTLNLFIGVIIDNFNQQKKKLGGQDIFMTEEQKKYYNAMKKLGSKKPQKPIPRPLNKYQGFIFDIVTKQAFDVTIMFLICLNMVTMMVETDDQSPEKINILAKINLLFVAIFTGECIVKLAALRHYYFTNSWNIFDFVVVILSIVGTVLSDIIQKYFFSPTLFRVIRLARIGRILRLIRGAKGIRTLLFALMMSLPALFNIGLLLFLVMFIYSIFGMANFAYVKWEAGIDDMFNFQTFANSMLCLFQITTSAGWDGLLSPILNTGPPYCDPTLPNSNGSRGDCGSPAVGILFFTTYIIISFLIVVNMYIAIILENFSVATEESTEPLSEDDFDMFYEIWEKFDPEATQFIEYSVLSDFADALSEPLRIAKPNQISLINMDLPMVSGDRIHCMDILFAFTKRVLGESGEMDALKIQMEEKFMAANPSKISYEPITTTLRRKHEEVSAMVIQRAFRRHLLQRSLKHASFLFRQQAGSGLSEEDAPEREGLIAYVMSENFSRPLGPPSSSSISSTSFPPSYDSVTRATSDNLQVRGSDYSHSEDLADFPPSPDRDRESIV
Chain of Voltage-dependent L-type calcium channel subunit alpha-1C (Q13936 whole entry): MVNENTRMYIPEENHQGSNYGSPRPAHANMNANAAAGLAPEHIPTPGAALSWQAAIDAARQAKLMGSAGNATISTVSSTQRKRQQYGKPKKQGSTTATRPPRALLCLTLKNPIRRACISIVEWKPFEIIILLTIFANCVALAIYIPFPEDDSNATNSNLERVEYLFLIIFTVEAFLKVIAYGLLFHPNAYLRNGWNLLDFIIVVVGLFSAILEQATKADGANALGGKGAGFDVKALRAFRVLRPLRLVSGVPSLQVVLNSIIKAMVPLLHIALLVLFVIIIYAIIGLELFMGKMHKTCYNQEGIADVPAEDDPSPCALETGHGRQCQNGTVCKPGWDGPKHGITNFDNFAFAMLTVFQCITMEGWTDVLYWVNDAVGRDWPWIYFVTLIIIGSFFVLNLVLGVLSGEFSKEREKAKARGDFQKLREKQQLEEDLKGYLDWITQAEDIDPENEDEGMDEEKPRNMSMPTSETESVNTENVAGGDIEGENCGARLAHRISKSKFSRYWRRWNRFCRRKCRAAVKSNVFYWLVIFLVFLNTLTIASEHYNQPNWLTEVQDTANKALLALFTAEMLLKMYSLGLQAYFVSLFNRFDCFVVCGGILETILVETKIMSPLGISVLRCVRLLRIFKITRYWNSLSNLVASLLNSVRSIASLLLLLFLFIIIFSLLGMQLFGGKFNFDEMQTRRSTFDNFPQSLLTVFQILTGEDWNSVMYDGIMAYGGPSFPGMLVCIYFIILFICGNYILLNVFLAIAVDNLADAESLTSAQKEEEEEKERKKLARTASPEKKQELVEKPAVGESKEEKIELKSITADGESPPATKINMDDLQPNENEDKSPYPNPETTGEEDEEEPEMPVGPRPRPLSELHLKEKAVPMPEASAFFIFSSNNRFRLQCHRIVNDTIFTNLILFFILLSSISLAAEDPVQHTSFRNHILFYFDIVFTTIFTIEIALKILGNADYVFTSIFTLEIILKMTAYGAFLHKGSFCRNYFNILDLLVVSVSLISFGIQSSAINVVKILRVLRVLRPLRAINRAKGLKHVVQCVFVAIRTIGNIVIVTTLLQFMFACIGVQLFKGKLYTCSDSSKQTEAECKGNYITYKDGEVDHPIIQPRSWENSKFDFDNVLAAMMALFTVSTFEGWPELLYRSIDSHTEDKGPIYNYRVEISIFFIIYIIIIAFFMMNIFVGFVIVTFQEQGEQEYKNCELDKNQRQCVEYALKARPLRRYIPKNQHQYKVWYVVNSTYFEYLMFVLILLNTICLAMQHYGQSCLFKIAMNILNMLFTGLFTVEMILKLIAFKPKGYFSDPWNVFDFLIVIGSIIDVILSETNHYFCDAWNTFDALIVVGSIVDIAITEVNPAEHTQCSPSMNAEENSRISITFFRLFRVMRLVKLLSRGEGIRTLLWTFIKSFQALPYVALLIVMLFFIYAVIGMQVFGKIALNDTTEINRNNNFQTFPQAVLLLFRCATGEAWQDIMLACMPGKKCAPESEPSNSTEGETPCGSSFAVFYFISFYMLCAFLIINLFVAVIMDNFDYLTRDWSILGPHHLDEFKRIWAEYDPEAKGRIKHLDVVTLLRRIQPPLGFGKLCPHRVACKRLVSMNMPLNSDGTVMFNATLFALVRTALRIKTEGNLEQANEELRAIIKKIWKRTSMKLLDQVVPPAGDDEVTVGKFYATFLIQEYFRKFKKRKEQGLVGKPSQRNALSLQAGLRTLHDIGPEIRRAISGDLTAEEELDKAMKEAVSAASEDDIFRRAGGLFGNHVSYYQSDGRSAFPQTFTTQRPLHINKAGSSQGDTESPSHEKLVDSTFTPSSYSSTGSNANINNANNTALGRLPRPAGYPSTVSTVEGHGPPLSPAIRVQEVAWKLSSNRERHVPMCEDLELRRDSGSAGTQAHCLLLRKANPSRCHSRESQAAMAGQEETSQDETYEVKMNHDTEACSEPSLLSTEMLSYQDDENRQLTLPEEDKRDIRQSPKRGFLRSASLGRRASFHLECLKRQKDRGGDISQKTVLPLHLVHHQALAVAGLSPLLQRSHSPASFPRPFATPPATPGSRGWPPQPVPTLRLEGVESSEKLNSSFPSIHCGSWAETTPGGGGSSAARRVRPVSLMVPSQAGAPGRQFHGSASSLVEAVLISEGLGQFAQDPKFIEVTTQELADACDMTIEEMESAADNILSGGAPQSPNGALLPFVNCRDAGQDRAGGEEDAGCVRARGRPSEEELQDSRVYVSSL

Compound: CS(=O)(=O)c1ccc(-c2cnc(N)c(-c3ccc(C(F)(F)F)nc3)c2)cc1 [MMV-048]
- EC50 (Plasmodium cynomolgi [1]): 0.064 µM
- EC50 (Plasmodium cynomolgi [2]): 0.061 µM
- IC50 [3]: 0.0034 µM
- EC50 (Plasmodium cynomolgi [4]): > 10 µM
- EC50 (Plasmodium falciparum [5]): 0.214 µM
- EC50 (Plasmodium falciparum [6]): 0.14 µM
- EC50 (Plasmodium falciparum [7]): 0.09 µM
- EC50 (Plasmodium falciparum [8]): 0.111 µM
- Activity (Plasmodium falciparum [9]): >25%
- Activity (Plasmodium berghei): 98 - 99.5%
- ED90 (Plasmodium falciparum [10]): 0.57 mg/kg
- ED99 (Plasmodium falciparum [10]): 1.1 mg/kg
- clearance [11]: 0.036 L/h/kg
- clearance [12]: 0.18 L/h/kg
- clearance [13]: 0.39 L/h/kg
- Vd [14]: 1.3 to 3 L/kg
- Vd [15]: 1.3 to 3 L/kg
- Vd [16]: 1.3 to 3 L/kg
- half-life [17]: 58 h
- half-life [18]: 56 h
- half-life [19]: 5.6 h
- half-life [20]: 9.2 h
- bioavailability [21]: 45%
- bioavailability [22]: 74%
- clearance [23]: 0.333 mL/min
- Vd [24]: 2.8 L/kg
- half-life [25]: 90 h
- IC50 [26]: > 10 µM
- IC50 [27]: > 10 µM
- AUC(0-inf) [28]: 2.14 to 156 µg·h/mL
- half-life [29]: 163 to 252 h
- AUC [30]: 29 µg·h/mL
- AUC [31]: 21.1 µg·h/mL
- half-life [32]: 210 h
- half-life [33]: 193 h
- EC50 (Plasmodium falciparum [34]): 0.024 µM
